Measurements taken from US20250066379A1, “ANTIMALARIAL AGENTS” (Merck Sharp & Dohme LLC, priority 2021, published 2025).

What follows are compounds tested on parasite (assay: Parasite LDH growth assay (Parasite Assay)). Conditions: Plasmodium falciparum, 72 h, ring stage parasites, 72 hours growth at 37° C., LDH readout of parasite growth.
Type: cell-based, Plasmodium falciparum
Procedure: Assessing Antiparasite Potency in a Parasite LDH Growth Assay (Parasite Assay) The parasite stock was maintained at 4% haematocrit in RPMI-Hepes media 30 buffered with sodium bicarbonate and supplemented with 5% heat inactivated human serum and 0.5% albumax. Approximately 42 hours prior to the potency assay being set up, parasites were synchronized with 5% sorbitol to select for ring stage parasites. On the day of assay set up, a blood smear of the parasite culture was Giemsa stained and counted. The parasitemia was 35 adjusted to 0.7% rings and the haematocrit was diluted to 2% in RPMI-Hepes media buffered with sodium bicarbonate and supplemented with 5% heat inactivated human serum and 0.5% albumax. 30 ul of diluted parasites are then added into 10 μl of media+compound in pre-prepared Greiner TC assay plates. Parasite assay plates were placed in gassed humidified boxes in single layer and allowed to incubate at 37° C. for 72 hours. After 72 hours growth, assay plates are sealed with parafilm and frozen flat, in single file at −80° C. overnight. On the following day, assay plates were allowed to thaw at room temperature for 4 hours to which an LDH assay was performed to measure parasite growth.

Compound | EC50
CCC12CCCCCc3ccc4c(c3)[C@H](CC(C)(C)O4)NC(=O)c3ccc4c(c3)[C@@H]([C@H](COC)CO4)N(C(=N)N1)C(=O)C2 (mixture of isomers) [Example 16B, rac-(1R,18S,27R)-5-ethyl-3-imino-27-(methoxymethyl)-16,16-dimethyl-15,25-dioxa-2,4,19-triazahexacyclo[19. 6.2.22,5.211,14.013, 18.024,28] tritriaconta-11,13,21,23,28,30-hexaene-20,33-dione] | 3.4 nM
CCC12CCCC3CC3c3ccc4c(c3)[C@H](CC(C)(C)O4)NC(=O)c3ccc4c(c3)[C@@H]([C@H](COC)CO4)N(C(=N)N1)C(=O)C2 (mixture of isomers) [Example 17, rac-(12R,13R,22S)-8-ethyl-10-imino-13-(methoxymethyl)-24,24-dimethyl-15,25-dioxa-9,11,21-triazaheptacyclo[20. 6.2.28,11.216,19.02, 4.012,17.026,30] tetratriaconta-1(29),16(32),17,19 (31),26(30),27-hexaene-20,33-dione] | 18.9 nM
CC[C@]12CCC/C=C/c3ccc4c(c3)[C@H](CCO4)NC(=O)c3ccc4c(c3)[C@@H](CCO4)N(C(=N)N1)C(=O)C2 (racemic) [Example 18, rac-(1R,5R,9E,18S)-5-ethyl-3-imino-15,25-dioxa-2,4,19-triazahexacyclo[19. 6.2.22,5.211,14.013, 18.024,28] tritriaconta-9,11,13,21,23,28,30-heptaene-20,33-dione] | 6 nM
CC[C@]12CCCCCc3ccc4c(c3)[C@H](CCO4)NC(=O)c3ccc4c(c3)[C@@H](CCO4)N(C(=N)N1)C(=O)C2 (racemic) [Example 19, rac-(1R,5R,18S)-5-ethyl-3-imino-15,25-dioxa-2,4,19-triazahexacyclo[19. 6.2.22,5.211,14.013, 18.024,28] tritriaconta-11,13,21,23,28,30-hexaene-20,33-dione] | 4.8 nM
CCC12CC/C=C/c3ccc4c(c3)[C@H](CC(C)(C)O4)NC(=O)c3ccc4c(c3)[C@@H](CCO4)N(C(=N)N1)C(=O)C2 (mixture of isomers) [Example 20, rac-(1R,8E,17S)-5-ethyl-3-imino-15,15-dimethyl-14,24-dioxa-2,4,18-triazahexacyclo[18. 6.2.22,5.210,13.012, 17.023,27] dotriaconta-8,10,12,20,22,27,29-heptaene-19,32-dione] | 3.6 nM
CC[C@]12CCCC3CC3c3ccc4c(c3)[C@H](CCO4)NC(=O)c3ccc4c(c3)[C@@H](CCO4)N(C(=N)N1)C(=O)C2 (mixture of isomers) [Example 21, rac-(8R,12R,22S)-8-ethyl-10-imino-15,25-dioxa-9,11,21-triazaheptacyclo[20. 6.2.28,11.216,19.02, 4.012,17.026,30] tetratriaconta-1(29),16(32),17,19 (31),26(30),27-hexaene-20,33-dione] | 5.1 nM
CC[C@]12CCCCCc3ccc4c(c3)OC(C)(C)C[C@@H]4NC(=O)c3ccc4c(c3)[C@@H](CCO4)N(C(=N)N1)C(=O)C2 (racemic) [Example 22, rac-(1R,5R,19S)-5-ethyl-3-imino-17,17-dimethyl-16,26-dioxa-2,4,20-triazahexacyclo[20. 6.2.22,5.111,15.014, 19.025,29] tritriaconta-11(31),12,14,22,24, 29-hexaene-21,33-dione] | 57.4 nM
CCC12CCCCC/C=C\c3ccc4c(c3)OC(C)(C)C[C@@H]4NC(=O)c3ccc4c(c3)[C@@H](CCO4)N(C(=N)N1)C(=O)C2 (racemic) [Example 23, rac-(1R,11Z,21S)-5-ethyl-3-imino-19,19-dimethyl-18,28-dioxa-2,4,22-triazahexacyclo[22. 6.2.22,5.113,17.016, 21.027,31] pentatriaconta-11,13(33),14,16,24, 26,31-heptaene-23,35-dione] | 7.5 nM
CC[C@]12CCCC(C)c3ccc4c(c3)[C@@H](NC(=O)c3ccc5c(c3)[C@@H](CCO5)N(C(=N)N1)C(=O)C2)[C@H](O)C4 (stereo partly drawn) [Example 1, (1R,5R,15R,16R)-5-ethyl-15-hydroxy-3-imino-9-methyl-23-oxa-2,4,17-triazahexacyclo[17.6.2.22,5.210,13.012,16.022,26]hentriaconta-10,12,19,21,26,28-hexaene-18,31-dione] | 2.7 nM
CC[C@]12CCCCCc3ccc4c(c3)[C@@H](NC(=O)c3ccc5c(c3)[C@@H](CCO5)N(C(=N)N1)C(=O)C2)[C@H](O)C4 [Example 2, (1R,5R,16R,17R)-5-ethyl-16-hydroxy-3-imino-24-oxa-2,4,18-triazahexacyclo[18.6.2.22,5.211,14.013,17.023,27]dotriaconta-11,13,20,22,27,29-hexaene-19,32-dione] | 11 nM
CC[C@]12CCCCc3ccc4c(c3)[C@H](CC(C)(C)O4)NC(=O)c3ccc4c(c3)[C@@H](CCO4)N(C(=N)N1)C(=O)C2 [Example 3A, (1R,5R,17S)-5-ethyl-3-imino-15,15-dimethyl-14,24-dioxa-2,4,18-triazahexacyclo[18.6.2.22,5.210,13.012,17.023,27]dotriaconta-10,12,20,22,27,29-hexaene-19,32-dione] | 0.2 nM
CC[C@@]12CCCCc3ccc4c(c3)[C@H](CC(C)(C)O4)NC(=O)c3ccc4c(c3)[C@@H](CCO4)N(C(=N)N1)C(=O)C2 [Example 3B, (1R,5S,17S)-5-ethyl-3-imino-15,15-dimethyl-14,24-dioxa-2,4,18-triazahexacyclo[18. 6.2.22,5.210,13.012, 17.023,27] dotriaconta-10,12,20,22,27,29-hexaene-19,32-dione] | 270 nM
CC[C@]12CCCCOc3ccc4c(c3)[C@H](CC(C)(C)O4)NC(=O)c3ccc4c(c3)[C@@H](CCO4)N(C(=N)N1)C(=O)C2 [Example 4, (1R,5R,18S)-5-ethyl-3-imino-16,16-dimethyl-10,15,25-trioxa-2,4,19-triazahexacyclo[19.6.2.22,5.211,14.013,18.024,28]tritriaconta-11,13,21,23,28,30-hexaene-20,33-dione] | 2 nM
CC[C@]12CCC/C=C/c3ccc4c(c3)[C@@H](NC(=O)c3ccc5c(c3)[C@@H](CCO5)N(C(=N)N1)C(=O)C2)[C@H](O)C4 [Example 5, (1R,5R,9E,16R, 17R)-5-ethyl-16-hydroxy-3-imino-24-oxa-2,4,18-triazahexacyclo[18. 6.2.22,5.211,14.013, 17.023,27] dotriaconta-9,11,13,20,22,27, 29-heptaene-19,32-dione] | 0.9 nM

Same assay, conditions: ring stage parasites, 72 hours growth at 37° C., LDH readout of parasite growth

Compound | EC50
CCC12CCCCCCCc3ccc4c(c3)OC(C)(C)C[C@@H]4NC(=O)c3ccc4c(c3)[C@@H](CCO4)N(C(=N)N1)C(=O)C2 (racemic) [Example 24A, rac-(1R,21S)-5-ethyl-3-imino-19,19-dimethyl-18,28-dioxa-2,4,22-triazahexacyclo[22. 6.2.22,5.113,17.016, 21.027,31] pentatriaconta-13(33),14,16,24,26, 31-hexaene-23,35-dione] | 5.4 nM
CCC12CCCCCCCc3ccc4c(c3)OC(C)(C)C[C@@H]4NC(=O)c3ccc4c(c3)[C@@H](CCO4)N(C(=N)N1)C(=O)C2 (racemic) [Example 24B, rac-(1R,21S)-5-ethyl-3-imino-19,19-dimethyl-18,28-dioxa-2,4,22-triazahexacyclo[22. 6.2.22,5.113,17.016, 21.027,31] pentatriaconta-13(33),14,16,24,26, 31-hexaene-23,35-dione] | 2 nM
COC[C@@H]1COc2ccc3cc2[C@@H]1N1C(=N)NC(C)(CCCCCc2ccc4c(c2)[C@H](CC(C)(C)O4)NC3=O)CC1=O (mixture of isomers) [Example 25A, rac-(1R,18S,27R)-3-imino-27-(methoxymethyl)-5,16,16-trimethyl-15,25-dioxa-2,4,19-triazahexacyclo[19. 6.2.22,5.211,14.013, 18.024,28] tritriaconta-11,13,21,23,28,30-hexaene-20,33-dione] | 23 nM
COC[C@@H]1COc2ccc3cc2[C@@H]1N1C(=N)NC(C)(CCCCCc2ccc4c(c2)[C@H](CC(C)(C)O4)NC3=O)CC1=O (mixture of isomers) [Example 25B, rac-(1R,18S,27R)-3-imino-27-(methoxymethyl)-5,16,16-trimethyl-15,25-dioxa-2,4,19-triazahexacyclo[19. 6.2.22,5.211,14.013, 18.024,28] tritriaconta-11,13,21,23,28,30-hexaene-20,33-dione] | 0.7 nM
CCC12CCC/C=C/c3ccc4c(c3)[C@H](CC(C)(C)O4)NC(=O)c3ccc4c(c3)[C@@H]([C@H](COC)CO4)N(C(=N)N1)C(=O)C2 (mixture of isomers) [Example 26A, rac-(1R,9E,18S,27R)-5-ethyl-3-imino-27-(methoxymethyl)-16,16-dimethyl-15,25-dioxa-2,4,19-triazahexacyclo[19. 6.2.22,5.211,14.013, 18.024,28] tritriaconta-9,11,13,21,23,28,30-heptaene-20,33-dione] | 190 nM
CCC12CCC/C=C/c3ccc4c(c3)[C@H](CC(C)(C)O4)NC(=O)c3ccc4c(c3)[C@@H]([C@H](COC)CO4)N(C(=N)N1)C(=O)C2 (mixture of isomers) [Example 26B, rac-(1R,9E,18S,27R)-5-ethy1-3-imino-27-(methoxymethyl)-16,16-dimethyl-15,25-dioxa-2,4,19-triazahexacyclo[19. 6.2.22,5.211,14.013, 18.024,28] tritriaconta-9,11,13,21,23,28,30-heptaene-20,33-dione] | 7.4 nM
CCC12CCCCCc3ccc4c(c3)[C@@H](NC(=O)c3ccc5c(c3)[C@@H]([C@H](COC)CO5)N(C(=N)N1)C(=O)C2)[C@H](O)C4 (single isomer, unassigned) [Example 15A] | 9.2 nM
CCC12CCCCCc3ccc4c(c3)[C@@H](NC(=O)c3ccc5c(c3)[C@@H]([C@H](COC)CO5)N(C(=N)N1)C(=O)C2)[C@H](O)C4 (single isomer, unassigned) [Example 15B] | 81 nM
